# Measured values reported in PubChem BioAssay (NCI).
#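 1) Cells in 96-well plates. 2) Compound, 48 h, 5 concentrations. 3) Linear interpolation between surrounding doses. 4) Unreached endpoint = highest concentration. GI50 is the concentration that inhibits growth by half. TGI denotes the concentration required for complete inhibition of growth.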
# Columns and labels:
# Test in all cases: DTP human tumour cell line panel, 48 h
# 786-0 renal = tested on: 786-0 renal
# A498 renal = tested on: A498 renal
# A549 NSCLC = tested on: A549 NSCLC
# ACHN renal = tested on: ACHN renal
# BT-549 breast = tested on: BT-549 breast
# CAKI-1 renal = tested on: CAKI-1 renal
# CCRF-CEM leukemia = tested on: CCRF-CEM leukemia
# COLO 205 colon = tested on: COLO 205 colon
# DU-145 prostate = tested on: DU-145 prostate
# EKVX NSCLC = tested on: EKVX NSCLC
# HCC-2998 colon = tested on: HCC-2998 colon
# HCT-116 colon = tested on: HCT-116 colon
# HCT-15 colon = tested on: HCT-15 colon
# HL-60(TB) leukemia = tested on: HL-60(TB) leukemia
# HOP-62 NSCLC = tested on: HOP-62 NSCLC
# HOP-92 NSCLC = tested on: HOP-92 NSCLC
# HS 578T breast = tested on: HS 578T breast
# HT29 colon = tested on: HT29 colon
# IGROV1 ovarian = tested on: IGROV1 ovarian
# K-562 leukemia = tested on: K-562 leukemia
# KM12 colon = tested on: KM12 colon
# LOX IMVI melanoma = tested on: LOX IMVI melanoma
# M14 melanoma = tested on: M14 melanoma
# MALME-3M melanoma = tested on: MALME-3M melanoma
# MCF7 breast = tested on: MCF7 breast
# MDA-MB-231 breast = tested on: MDA-MB-231 breast
# MDA-MB-435 = tested on: MDA-MB-435
# MOLT-4 leukemia = tested on: MOLT-4 leukemia
# NCI-H226 lung = tested on: NCI-H226 lung
# NCI-H23 lung = tested on: NCI-H23 lung
# NCI-H460 lung = tested on: NCI-H460 lung
# NCI-H522 lung = tested on: NCI-H522 lung
# NCI/ADR-RES ovarian = tested on: NCI/ADR-RES ovarian
# OVCAR-3 ovarian = tested on: OVCAR-3 ovarian
# OVCAR-4 ovarian = tested on: OVCAR-4 ovarian
# OVCAR-5 ovarian = tested on: OVCAR-5 ovarian
# OVCAR-8 ovarian = tested on: OVCAR-8 ovarian
# PC-3 prostate = tested on: PC-3 prostate
# RPMI-8226 leukemia = tested on: RPMI-8226 leukemia
# SF-268 CNS = tested on: SF-268 CNS
# SF-295 CNS = tested on: SF-295 CNS
# SF-539 CNS = tested on: SF-539 CNS
# SK-MEL-2 melanoma = tested on: SK-MEL-2 melanoma
# SK-MEL-28 melanoma = tested on: SK-MEL-28 melanoma
# SK-MEL-5 melanoma = tested on: SK-MEL-5 melanoma
# SK-OV-3 ovarian = tested on: SK-OV-3 ovarian
# SN12C renal = tested on: SN12C renal
# SNB-19 CNS = tested on: SNB-19 CNS
# SNB-75 CNS = tested on: SNB-75 CNS
# SR leukemia = tested on: SR leukemia
# SW-620 colon = tested on: SW-620 colon
# T-47D breast = tested on: T-47D breast
# TK-10 renal = tested on: TK-10 renal
# U251 CNS = tested on: U251 CNS
# UACC-257 melanoma = tested on: UACC-257 melanoma
# UACC-62 melanoma = tested on: UACC-62 melanoma
# UO-31 renal = tested on: UO-31 renal
structure (smiles),measurement,setting,value
O=C(CCCCCCNC(=O)C(O)(O)C(F)(F)F)Nc1ccc(-c2ccccc2)cc1,GI50,786-0 renal,4.34 µM
same,TGI,786-0 renal,11.7 µM
same,GI50,A498 renal,0.7 µM
same,TGI,A498 renal,6.41 µM
same,GI50,A549 NSCLC,6.04 µM
same,TGI,A549 NSCLC,28.8 µM
same,GI50,ACHN renal,2.85 µM
same,TGI,ACHN renal,9.22 µM
same,GI50,BT-549 breast,4.21 µM
same,TGI,BT-549 breast,13.2 µM
same,GI50,CAKI-1 renal,5.74 µM
same,TGI,CAKI-1 renal,17.5 µM
same,GI50,CCRF-CEM leukemia,1.84 µM
same,TGI,CCRF-CEM leukemia,> 33.2 µM
same,GI50,COLO 205 colon,4.03 µM
same,TGI,COLO 205 colon,11.8 µM
same,GI50,DU-145 prostate,4.78 µM
same,TGI,DU-145 prostate,32.7 µM
same,GI50,EKVX NSCLC,5.26 µM
same,TGI,EKVX NSCLC,> 33.2 µM
same,GI50,HCC-2998 colon,4.91 µM
same,TGI,HCC-2998 colon,9.88 µM
same,GI50,HCT-116 colon,1.27 µM
same,TGI,HCT-116 colon,7.08 µM
same,GI50,HCT-15 colon,4.73 µM
same,TGI,HCT-15 colon,9.8 µM
same,GI50,HL-60(TB) leukemia,2.64 µM
same,TGI,HL-60(TB) leukemia,> 33.2 µM
same,GI50,HOP-62 NSCLC,4.76 µM
same,TGI,HOP-62 NSCLC,29.4 µM
same,GI50,HOP-92 NSCLC,0.74 µM
same,TGI,HOP-92 NSCLC,4.18 µM
same,GI50,HS 578T breast,4.15 µM
same,TGI,HS 578T breast,25.3 µM
same,GI50,HT29 colon,3.77 µM
same,TGI,HT29 colon,> 33.2 µM
same,GI50,IGROV1 ovarian,3.9 µM
same,TGI,IGROV1 ovarian,10.6 µM
same,GI50,K-562 leukemia,1.58 µM
same,TGI,K-562 leukemia,> 33.2 µM
same,GI50,KM12 colon,3.84 µM
same,TGI,KM12 colon,9.23 µM
same,GI50,LOX IMVI melanoma,1.96 µM
same,TGI,LOX IMVI melanoma,6.29 µM
same,GI50,M14 melanoma,3.82 µM
same,TGI,M14 melanoma,12.5 µM
same,GI50,MALME-3M melanoma,1.6 µM
same,TGI,MALME-3M melanoma,10.2 µM
same,GI50,MCF7 breast,5.57 µM
same,TGI,MCF7 breast,30 µM
same,GI50,MDA-MB-231 breast,2.84 µM
same,TGI,MDA-MB-231 breast,10.7 µM
same,GI50,MDA-MB-435,3.55 µM
same,TGI,MDA-MB-435,32.4 µM
same,GI50,MOLT-4 leukemia,1.32 µM
same,TGI,MOLT-4 leukemia,> 33.2 µM
same,GI50,NCI-H226 lung,7.55 µM
same,TGI,NCI-H226 lung,26.6 µM
same,GI50,NCI-H23 lung,4.28 µM
same,TGI,NCI-H23 lung,13.6 µM
same,GI50,NCI-H460 lung,3.24 µM
same,TGI,NCI-H460 lung,11.4 µM
same,GI50,NCI-H522 lung,3.81 µM
same,TGI,NCI-H522 lung,20.5 µM
same,GI50,NCI/ADR-RES ovarian,3.99 µM
same,TGI,NCI/ADR-RES ovarian,12.4 µM
same,GI50,OVCAR-3 ovarian,3.39 µM
same,TGI,OVCAR-3 ovarian,8.2 µM
same,GI50,OVCAR-4 ovarian,11 µM
same,TGI,OVCAR-4 ovarian,> 33.2 µM
same,GI50,OVCAR-5 ovarian,1.62 µM
same,TGI,OVCAR-5 ovarian,9.14 µM
same,GI50,OVCAR-8 ovarian,3.25 µM
same,TGI,OVCAR-8 ovarian,> 33.2 µM
same,GI50,PC-3 prostate,3.78 µM
same,TGI,PC-3 prostate,19 µM
same,GI50,RPMI-8226 leukemia,2.32 µM
same,TGI,RPMI-8226 leukemia,> 33.2 µM
same,GI50,SF-268 CNS,5.98 µM
same,TGI,SF-268 CNS,14.3 µM
same,GI50,SF-295 CNS,2.53 µM
same,TGI,SF-295 CNS,7.49 µM
same,GI50,SF-539 CNS,4.61 µM
same,TGI,SF-539 CNS,13 µM
same,GI50,SK-MEL-2 melanoma,3.31 µM
same,TGI,SK-MEL-2 melanoma,8.97 µM
same,GI50,SK-MEL-28 melanoma,2.09 µM
same,TGI,SK-MEL-28 melanoma,8.52 µM
same,GI50,SK-MEL-5 melanoma,1.94 µM
same,TGI,SK-MEL-5 melanoma,6.27 µM
same,GI50,SK-OV-3 ovarian,4.31 µM
same,TGI,SK-OV-3 ovarian,21.6 µM
same,GI50,SN12C renal,4.21 µM
same,TGI,SN12C renal,16 µM
same,GI50,SNB-19 CNS,4.63 µM
same,TGI,SNB-19 CNS,10.3 µM
same,GI50,SNB-75 CNS,2.92 µM
same,TGI,SNB-75 CNS,> 33.2 µM
same,GI50,SR leukemia,1.43 µM
same,TGI,SR leukemia,> 33.2 µM
same,GI50,SW-620 colon,1.8 µM
same,TGI,SW-620 colon,7.24 µM
same,GI50,T-47D breast,2.96 µM
same,TGI,T-47D breast,25.3 µM
same,GI50,TK-10 renal,1.63 µM
same,TGI,TK-10 renal,> 33.2 µM
same,GI50,U251 CNS,3.62 µM
same,TGI,U251 CNS,10.9 µM
same,GI50,UACC-257 melanoma,4.67 µM
same,TGI,UACC-257 melanoma,14.5 µM
same,GI50,UACC-62 melanoma,1.31 µM
same,TGI,UACC-62 melanoma,5.39 µM
same,GI50,UO-31 renal,3.11 µM
same,TGI,UO-31 renal,8.88 µM
